Assay results taken from paper PMC7901646, “Pyrrolo[2′,3′:3,4]cyclohepta[1,2-d][1,2]oxazoles, a New Class of Antimitotic Agents Active against Multiple Malignant Cell Types” (Journal of Medicinal Chemistry, 2020).
Read-outs that look alike come from different tables or passages of the source.

Experiments:
Type in all cases: cell-based
NCI-H226 = experiment: NCI-60 screen; conditions: Homo sapiens, Non-Small-Cell Lung Cancer
Protocol: (§1) All the synthesized compounds 51–76 were tested at a 10^–5 M concentration for their antitumor activity on the full NCI-60 panel comprising cancer cell lines derived from nine human cancer cell types (leukemia, non-small-cell lung, colon, central nervous system, melanoma, ovarian, renal, prostate, and breast).[50]

K-562 = experiment: NCI-60 screen; conditions: Homo sapiens, K562; Leukemia
Protocol: as §1

M14 = experiment: NCI-60 screen; conditions: Homo sapiens, Melanoma
Protocol: as §1

NCI-H460 = experiment: NCI-60 screen; conditions: Homo sapiens, Non-Small-Cell Lung Cancer
Protocol: as §1

COLO 205 = experiment: NCI-60 screen; conditions: Homo sapiens, Colon Cancer
Protocol: as §1

TK-10 = experiment: NCI-60 screen; conditions: Homo sapiens, Renal Cancer
Protocol: as §1

A498 = experiment: NCI-60 screen; conditions: Homo sapiens, Renal Cancer
Protocol: as §1

CCRF-CEM = experiment: NCI-60 screen; conditions: Homo sapiens, Leukemia
Protocol: as §1

PC-3 = experiment: NCI-60 screen; conditions: Homo sapiens, Prostate Cancer
Protocol: as §1

MDA-MB-231/ATCC = experiment: NCI-60 screen; conditions: Homo sapiens, Breast Cancer
Protocol: as §1

HCT-15 = experiment: NCI-60 screen; conditions: Homo sapiens, Colon Cancer
Protocol: as §1

UACC-62 = experiment: NCI-60 screen; conditions: Homo sapiens, Melanoma
Protocol: as §1

RPMI-8226 = experiment: NCI-60 screen; conditions: Homo sapiens, Leukemia
Protocol: as §1

SF-268 = experiment: NCI-60 screen; conditions: Homo sapiens, CNS Cancer
Protocol: as §1

SK-OV-3 = experiment: NCI-60 screen; conditions: Homo sapiens, Ovarian Cancer
Protocol: as §1

HL-60(TB) = experiment: NCI-60 screen; conditions: Homo sapiens, Leukemia
Protocol: as §1

SF-295 = experiment: NCI-60 screen; conditions: Homo sapiens, CNS Cancer
Protocol: as §1

SR = experiment: NCI-60 screen; conditions: Homo sapiens, Leukemia
Protocol: as §1

MCF7 = experiment: NCI-60 screen; conditions: Homo sapiens, Breast Cancer
Protocol: as §1

ACHN = experiment: NCI-60 screen; conditions: Homo sapiens, Renal Cancer
Protocol: as §1

SNB-19 = experiment: NCI-60 screen; conditions: Homo sapiens, CNS Cancer
Protocol: as §1

KM12 = experiment: NCI-60 screen; conditions: Homo sapiens, Colon Cancer
Source text: (§2) on the full NCI-60 panel comprising cancer cell lines derived from nine human cancer cell types (leukemia, non-small-cell lung, colon, central nervous system, melanoma, ovarian, renal, prostate, and breast).[50]

LOX IMVI = experiment: NCI-60 screen; conditions: Homo sapiens, Melanoma
Source text: as §2

NCI-H522 = experiment: NCI-60 screen; conditions: Homo sapiens, Non-Small-Cell Lung Cancer
Source text: as §2

OVCAR-3 = experiment: NCI-60 screen; conditions: Homo sapiens, Ovarian Cancer
Source text: as §2

[1] = test system: NCI-60 panel of human cancer cell lines; experiment: NCI in vitro human tumor cell line screening, full panel; conditions: full NCI panel; for GI50: five concentrations 10^–4–10^–8 M, read-out: GI50 (concentration that inhibits 50% net cell growth), range over panel; for MG_MID (mean graph midpoint): arithmetic mean for all tested cancer cell lines
Source text: as §2

SU-DHL-10 (GCB DLBCL) = experiment: MTT cell proliferation, lymphoma; conditions: Homo sapiens, SU-DHL10, 72 h; for activity at 1 µM: of untreated cells, read-out: Proliferating cells (%); for IC50: MTT
Protocol: (§3) All compounds were further tested at the concentration of 1 μM on four cell lines derived from distinct lymphoma histotypes, plus two with secondary resistance to the PI3Kδ inhibitor idelalisib[51] or to the BTK inhibitor ibrutinib.[52] […] For comparison, the same experiments were conducted using compound 3, but the response to it was minimal, and thus it was not considered further.
(§4) Established human cell lines derived from germinal center B-cell (GCB) (SU-DHL-10), activated B-cell (ABC) (HBL1) diffuse large B-cell lymphoma (DLBCL), mantle cell lymphoma (MCL) (MINO), splenic marginal zone lymphoma (SMZL) (parental VL51, VL51 idelalisib resistant clone, VL51 ibrutinib resistant clone) were cultured in culture RPMI-1640 media supplemented with fetal bovine serum (10%), penicillin–streptomycin–neomycin (∼5,000 units of penicillin, 5 mg of streptomycinm and 10 mg of neomycin/mL, Sigma), and L-glutamine (1%). Vincristine sulfate was purchased from Sigma-Aldrich. Cell line identities were confirmed by CellCheck test (IDEXX, BioResearch, Ludwigsburg, Germany). All compounds were dissolved in dimethyl sulfoxide to obtain a stock concentration of 10 mM.
(§5) The antiproliferative activity of all compounds was assessed by using the 3-(4.5-dimethylthiazolyl-2)-2,5-diphenyltetrazolium bromide (MTT) test. Cells were seeded in 96-well plates (nontissue culture treated) at a density of 1 × 10^5 cells/mL and treated with a single concentration of 1 μM for 72 h. […] In this case, cells were treated in triplicate with serially diluted compounds in the appropriate tissue culture medium at a range of 40–10 000 nM. Cells were incubated for 72 h at 37 °C, 5% CO2. Wells containing medium only were included on each plate and served as blanks for absorbance readings. MTT (Sigma, Buchs, Switzerland) was prepared as a 5 mg/mL stock solution in phosphate buffered saline (PBS) and filter-sterilized. MTT solution (22 μL) was added to each well, and tissue culture plates were incubated at 37 °C for 4 h. Cells were then lysed with 25% sodium dodecyl sulfate lysis buffer, and absorbance was read at 570 nm using a Beckman Coulter-AD340 plate reader.

MINO (MCL) = experiment: MTT cell proliferation, lymphoma; conditions: Homo sapiens, 72 h; for activity at 1 µM: of untreated cells, read-out: Proliferating cells (%); for IC50: MTT
Protocol: as §3, §4, §5

VL51 ibrutinib-resistant = experiment: MTT cell proliferation, lymphoma; conditions: Homo sapiens, 72 h, of untreated cells, read-out: Proliferating cells (%)
Protocol: as §3, §4, §5

[2] = test system: VL51 idelalisib-resistant; experiment: MTT cell proliferation, lymphoma; conditions: Homo sapiens, 72 h, of untreated cells, read-out: Proliferating cells (%)
Protocol: as §3, §4, §5

HBL1 (ABC DLBCL) = experiment: MTT cell proliferation, lymphoma; conditions: Homo sapiens, 72 h; for activity at 1 µM: of untreated cells, read-out: Proliferating cells (%); for IC50: MTT
Protocol: as §3, §4, §5

VL51 (MZL) = experiment: MTT cell proliferation, lymphoma; conditions: Homo sapiens, 72 h; for activity at 1 µM: of untreated cells, read-out: Proliferating cells (%); for IC50: MTT
Protocol: as §3, §4, §5

Compound	GI50 (NCI-H226) [µM]	GI50 (K-562) [µM]	GI50 (M14) [µM]	GI50 (NCI-H460) [µM]	GI50 (COLO 205) [µM]	GI50 (TK-10) [µM]	GI50 (A498) [µM]	GI50 (CCRF-CEM) [µM]	GI50 (PC-3) [µM]	GI50 (MDA-MB-231/ATCC) [µM]	GI50 (HCT-15) [µM]	GI50 (UACC-62) [µM]	GI50 (RPMI-8226) [µM]	GI50 (SF-268) [µM]	GI50 (SK-OV-3) [µM]	GI50 (HL-60(TB)) [µM]	GI50 (SF-295) [µM]	GI50 (SR) [µM]	GI50 (MCF7) [µM]	GI50 (ACHN) [µM]	further results
CCOC(=O)c1c(Cl)c2c(n1Cc1ccccc1)-c1oncc1CCC2 [Compound 70, Ethyl 7-Chloro-9-benzyl-4,5,6,9-tetrahydropyrrolo[2′,3′:3,4]cyclohepta[1,2-d][1,2]oxazole-8-carboxylate]	> 100	3.68	3.78	3.62	3.53	> 100	4.38	2.21	3.16	3.51	3.39	4.01	3.27	> 100	> 100	3.32	> 100	1.8	3.21	5.89	GI50 (SNB-19): > 100 µM; GI50 (KM12): 3.7 µM; GI50 (LOX IMVI): 5.26 µM; GI50 (NCI-H522): 1.29 µM; GI50 (OVCAR-3): 3.13 µM; GI50 ([1]; Homo sapiens): 1.29 to 5.89 µM; MG_MID (mean graph midpoint) [1]: 7.08 µM; activity at 1 µM (SU-DHL-10 (GCB DLBCL)): 69.5%; IC50 (SU-DHL-10 (GCB DLBCL)): 9 µM; activity at 1 µM (MINO (MCL)): 104%; IC50 (MINO (MCL)): > 10 µM; activity at 1 µM (VL51 ibrutinib-resistant): 104%; activity at 1 µM [2]: 111%; activity at 1 µM (HBL1 (ABC DLBCL)): 104%; IC50 (HBL1 (ABC DLBCL)): > 10 µM; activity at 1 µM (VL51 (MZL)): 108%; IC50 (VL51 (MZL)): > 10 µM
CCOC(=O)c1cc2c(n1Cc1cccc(OC)c1)-c1oncc1CCC2 [Compound 63, Ethyl 9-(3-Methoxybenzyl)-4,5,6,9-tetrahydropyrrolo[2′,3′:3,4]cyclohepta[1,2-d][1,2]oxazole-8-carboxylate]	21	0.39	0.54	3.53	0.58	11.2	0.44	2.17	2.35	1.84	0.45	0.51	1.89	6.71	2.83	0.53	0.62	0.28	0.37	3.4	GI50 (SNB-19): 8.23 µM; GI50 (KM12): 0.46 µM; GI50 (LOX IMVI): 1.75 µM; GI50 (NCI-H522): 0.23 µM; GI50 (OVCAR-3): 0.3 µM; GI50 ([1]; Homo sapiens): 0.15 to 18.7 µM; MG_MID (mean graph midpoint) [1]: 1.45 µM; activity at 1 µM (SU-DHL-10 (GCB DLBCL)): 51.5%; IC50 (SU-DHL-10 (GCB DLBCL)): 3 µM; activity at 1 µM (MINO (MCL)): 86.3%; IC50 (MINO (MCL)): 2.6 µM; activity at 1 µM (VL51 ibrutinib-resistant): 64.9%; activity at 1 µM [2]: 62.3%; activity at 1 µM (HBL1 (ABC DLBCL)): 117%; IC50 (HBL1 (ABC DLBCL)): > 5 µM; activity at 1 µM (VL51 (MZL)): 66.7%; IC50 (VL51 (MZL)): 2.3 µM
CCOC(=O)c1cc2c(n1Cc1cc(OC)c(OC)c(OC)c1)-c1oncc1CCC2 [Compound 67, Ethyl 9-(3,4,5-Trimethoxybenzyl)-4,5,6,9-tetrahydropyrrolo[2′,3′:3,4]cyclohepta[1,2-d][1,2]oxazole-8-carboxylate]	1.21	0.13	0.15	0.23	0.04	64.9	0.11	0.3	0.17	0.48	0.16	0.05	0.38	0.52	0.13	0.19	0.44	0.04	0.04	0.29	GI50 (SNB-19): 0.56 µM; GI50 (KM12): 0.05 µM; GI50 (LOX IMVI): 0.41 µM; GI50 (NCI-H522): 0.01 µM; GI50 (OVCAR-3): 0.03 µM; MG_MID (mean graph midpoint) [1]: 0.20 µM; GI50 [1]: 0.01 to 64.9 µM; activity at 1 µM (SU-DHL-10 (GCB DLBCL)): 11.2%; IC50 (SU-DHL-10 (GCB DLBCL)): 0.6 µM; activity at 1 µM (MINO (MCL)): 8.9%; IC50 (MINO (MCL)): 0.6 µM; activity at 1 µM (VL51 ibrutinib-resistant): 40.4%; activity at 1 µM [2]: 36.6%; activity at 1 µM (HBL1 (ABC DLBCL)): 24.2%; IC50 (HBL1 (ABC DLBCL)): 0.9 µM; activity at 1 µM (VL51 (MZL)): 40.5%; IC50 (VL51 (MZL)): 0.5 µM
CCOC(=O)c1cc2c(n1Cc1ccccc1OC)-c1oncc1CCC2 [Compound 62, Ethyl 9-(2-Methoxybenzyl)-4,5,6,9-tetrahydropyrrolo[2′,3′:3,4]cyclohepta[1,2-d][1,2]oxazole-8-carboxylate]	> 100	1.59	3.67	3.88	0.87	67.8	3.46	2.87	2.48	9.12	2.24	3.37	4.11	46.2	2.7	3.04	1.38	0.43	0.71	16.6	GI50 (SNB-19): 64.7 µM; GI50 (KM12): 2.1 µM; GI50 (LOX IMVI): 7.64 µM; GI50 (NCI-H522): 0.35 µM; GI50 (OVCAR-3): 0.87 µM; GI50 ([1]; Homo sapiens): 0.3 to 46.2 µM; MG_MID (mean graph midpoint) [1]: 4.47 µM; activity at 1 µM (SU-DHL-10 (GCB DLBCL)): 51.1%; IC50 (SU-DHL-10 (GCB DLBCL)): 3.6 µM; activity at 1 µM (MINO (MCL)): 104%; IC50 (MINO (MCL)): 4 µM; activity at 1 µM (VL51 ibrutinib-resistant): 80.3%; activity at 1 µM [2]: 63.6%; activity at 1 µM (HBL1 (ABC DLBCL)): 128%; IC50 (HBL1 (ABC DLBCL)): > 5 µM; activity at 1 µM (VL51 (MZL)): 71.3%; IC50 (VL51 (MZL)): 3.2 µM
